Results from patent publication US20020019389A1, “Urea derivative useful as an anti-cancer agent and process for preparing same” (priority 2000, published 2002).
Values after ≈ are worked out from the molar mass of the structure shown. Read-outs that look alike come from different tables or passages of the source.

What was measured:
Type in all cases: cell-based
[1] = tested on: SUN638 (gastric cancer) cell line; assay: Anti-cancer activity in vitro, SUN638 cell line
Experimental: (§1) The anti-cancer activity and toxicity of the compound according to the present invention were evaluated in vitro using A549 (lung cancer), SUN638 (gastric cancer), HCT116 (rectal cancer), and A431 (ovarian cancer) cell lines. The above four (4) cell lines were purchased from Cancer Research Institute, Seoul National University College of Medicine. […] The experiment was basically carried out according to the process described in Monks, A., et al, Journal of National Cancer Institute. 83: 757-766 (1991) and the results are represented in the following Tables 2 and 3.

[2] = tested on: A549 (lung cancer) cell line; assay: Anti-cancer activity in vitro, A549 cell line
Experimental: as §1

[3] = tested on: HCT116 (rectal cancer) cell line; assay: Anti-cancer activity in vitro, HCT116 cell line
Experimental: as §1

[4] = tested on: A431 (ovarian cancer) cell line; assay: Anti-cancer activity in vitro, A431 cell line; details: A431 Cell Line
Experimental: as §1

[5] = SUN638 Cell Line, read-out: GI50
[6] = Homo sapiens, A549, read-out: LC50
[7] = Homo sapiens, A549 Cell Line, read-out: GI50
[8] = Homo sapiens, HCT-116, read-out: LC50

| Structure (SMILES) | GI50 ([1]; SUN638 Cell Line) | LC50 ([1]; SUN638 Cell Line) | TGI50 ([1]; SUN638 Cell Line) | GI50 ([2]; A549 Cell Line) | LC50 ([2]; A549 Cell Line) | TGI50 ([2]; A549 Cell Line) | GI50 ([3]; HCT116 Cell Line) | LC50 ([3]; HCT116 Cell Line) | TGI50 ([3]; HCT116 Cell Line) | GI50 [1, 5] | LC50 ([1]; read-out: LC50) | LC50 [2, 6] | GI50 [2, 7] | GI50 [4] | TGI50 [4] | LC50 [4] | GI50 [1] | GI50 ([2]; Homo sapiens, A549) | GI50 ([3]; Homo sapiens, HCT-116) | LC50 [3, 8] |
| --- | --- | --- | --- | --- | --- | --- | --- | --- | --- | --- | --- | --- | --- | --- | --- | --- | --- | --- | --- | --- |
| COc1cc2c(cc1OC)[C@@H](c1ccccc1)CN(C(=O)Nc1nc3ccccc3nc1OC)CC2 [Compound 4, 3-[N-(2-methoxyquinoxalin-3-yl)aminocarbonyl]-(R)-7,8-dimethoxy-1-phenyl-2,3,4,5-tetrahydro-3H-benzazepine] | 1.86 µg/mL (≈ 3.84 µM) | >100 µg/mL | 6.76 µg/mL | 1.20 µg/mL (≈ 2.48 µM) | >100 µg/mL | 100 µg/mL | 0.12 µg/mL (≈ 0.248 µM) | >100 µg/mL | 3.54 µg/mL | – | – | – | – | – | – | – | – | – | – | – |
| C=CCN(CC=C)c1nc(N(CC=C)CC=C)nc(N2CCN(C(=O)Nc3nc4ccccc4nc3OC)CC2)n1 [Compound 53] | 2.18 µg/mL (≈ 3.92 µM) | >100 µg/mL | 5.49 µg/mL | 2.75 µg/mL (≈ 4.94 µM) | >100 µg/mL | 8.91 µg/mL | – | – | – | – | – | – | – | – | – | – | – | – | – | – |
| COc1cc2c(cc1OC)[C@H](c1ccccc1)CN(C(=O)n1ccnc1)CC2 [Compound 69, 3-[(1H-imidazol-1-yl)carbonyl]-(S)-7,8-dimethoxy-1-phenyl-2,3,4,5-tetrahydro-3H-benzazepine] | 0.13 µg/mL (≈ 0.344 µM) | >100 µg/mL | 3.63 µg/mL | 0.36 µg/mL (≈ 0.954 µM) | >100 µg/mL | 97.72 µg/mL | 0.13 µg/mL (≈ 0.344 µM) | >100 µg/mL | 10.71 µg/mL | – | – | – | – | – | – | – | – | – | – | – |
| COc1cc2c(cc1OC)[C@@H](c1ccccc1)CN(C(=O)n1ccnc1)CC2 [Compound 68, 3-[(1H-imidazol-1-yl)carbonyl]-(R)-7,8-dimethoxy-1-phenyl-2,3,4,5-tetrahydro-3H-benzazepine] | 0.22 µg/mL (≈ 0.583 µM) | >100 µg/mL | 97.72 µg/mL | 0.23 µg/mL (≈ 0.609 µM) | >100 µg/mL | 100 µg/mL | 0.24 µg/mL (≈ 0.636 µM) | >100 µg/mL | 10.96 µg/mL | – | – | – | – | – | – | – | – | – | – | – |
| COc1ccc(C#N)cc1NC(=O)N1CCN(c2cc(C)cc(C)c2)CC1 [Compound 26, 1-[(2-methoxy-5-cyanophenyl)aminocarbonyl]-4-(3,5-dimethylphenyl)piperazine] | – | – | – | – | – | – | – | – | – | 2.51 µg/mL (≈ 6.89 µM) | > 100 µg/mL | > 100 µg/mL | 1.36 µg/mL (≈ 3.73 µM) | – | – | – | – | – | – | – |
| COc1cc2c(cc1OC)C(c1ccc(Cl)cc1)CN(C(=O)Nc1nc3ccccc3nc1OC)CC2 (centres unmarked) [Compound 6, 3-[N-(2-methoxyquinoxalin-3-yl)aminocarbonyl]-7,8-dimethoxy-1-(4-chloro)phenyl-2,3,4,5-tetrahydro-3H-benzazepine] | 1.90 µg/mL (≈ 3.66 µM) | >100 µg/mL | 6.91 µg/mL | 2.69 µg/mL (≈ 5.18 µM) | >100 µg/mL | 100 µg/mL | 0.39 µg/mL (≈ 0.751 µM) | >100 µg/mL | 3.31 µg/mL | – | – | – | – | – | – | – | – | – | – | – |
| COc1cc2c(cc1OC)C(c1ccc(Cl)cc1)CN(C(=O)n1ccnc1)CC2 (centres unmarked) [Compound 71, 3-[(1H-imidazol-1-yl)carbonyl]-7,8-dimethoxy-1-(4-chloro)phenyl-2,3,4,5-tetrahydro-3H-benzazepine] | 2.63 µg/mL (≈ 6.39 µM) | >100 µg/mL | 9.12 µg/mL | 4.78 µg/mL (≈ 11.6 µM) | >100 µg/mL | 93.32 µg/mL | 2.69 µg/mL (≈ 6.53 µM) | >100 µg/mL | 14.12 µg/mL | – | – | – | – | – | – | – | – | – | – | – |
| N.N.[Cl][Pt][Cl] [Cisplatin, cisplatin, reference compound] | 1.7 µg/mL | – | 13.3 µg/mL | 3.8 µg/mL | – | 47.3 µg/mL | 2.9 µg/mL | – | 32.77 µg/mL | – | – | – | – | 3.2 µg/mL | 28.7 µg/mL | – | – | – | – | – |
| COc1nc2ccccc2nc1NC(=O)N1CCC(c2ccccc2)(c2ccccc2)CC1 [Compound 16, 1-[N-(2-methoxyquinoxalin-3-yl)aminocarbonyl]-4,4-diphenyl-piperidine] | – | – | – | – | – | – | – | – | – | 0.15 µg/mL (≈ 0.342 µM) | > 100 µg/mL | > 100 µg/mL | 1.02 µg/mL (≈ 2.33 µM) | – | – | – | – | – | – | – |
| COc1cc2c(cc1OC)[C@H](c1ccccc1)CN(C(=O)Nc1nc3ccccc3nc1OC)CC2 [Compound 3, 3-[N-(2-methoxyquinoxalin-3-yl)aminocarbonyl]-(S)-7,8-dimethoxy-1-phenyl-2,3,4,5-tetrahydro-3H-benzazepine] | 1.47 µg/mL (≈ 3.03 µM) | >100 µg/mL | 9.33 µg/mL | 1.31 µg/mL (≈ 2.7 µM) | >100 µg/mL | 5.62 µg/mL | 1.31 µg/mL (≈ 2.7 µM) | >100 µg/mL | 5.62 µg/mL | – | – | – | – | 2.04 µg/mL (≈ 4.21 µM) | 26.30 µg/mL | >100 µg/mL | – | – | – | – |
| O=C(NC(c1ccccc1)c1ccccc1)N1CCC(c2ccccc2)(c2ccccc2)CC1 [Compound 17, 1-[N-(diphenylmethyl)aminocarbonyl]-4,4-diphenyl-piperidine] | – | – | – | – | – | – | – | – | – | 0.63 µg/mL (≈ 1.41 µM) | > 100 µg/mL | > 100 µg/mL | 6.45 µg/mL (≈ 14.4 µM) | – | – | – | – | – | – | – |
| COc1ccc2c(c1)C(c1ccc(Cl)cc1)CN(C(=O)n1ccnc1)CC2 (centres unmarked) [Compound 74, 3-[(1H-imidazol-1-yl)carbonyl]-8-methoxy-1-(4-chloro)phenyl-2,3,4,5-tetrahydro-3H-benzazepine] | – | – | – | – | – | – | 1.44 µg/mL (≈ 3.77 µM) | >100 µg/mL | 7.24 µg/mL | – | – | – | – | – | – | – | – | – | – | – |
| COc1cc(OC)cc(N2CCN(C(=O)n3ccnc3)CC2)c1 [Compound 58, 1-[(1H-imidazol-1-yl)carbonyl]-4-(3,5-dimethoxyphenyl) piperazine] | – | – | – | – | – | – | – | – | – | – | > 100 µg/mL | > 100 µg/mL | – | – | – | – | 2.39 µg/mL (≈ 7.55 µM) | 2.75 µg/mL (≈ 8.69 µM) | 0.66 µg/mL (≈ 2.09 µM) | > 100 µg/mL |
| COc1cc2c(cc1OC)C(c1ccccc1)CN(C(=O)Nc1cc(C)c(C)nc1OC)CC2 (centres unmarked) [Compound 1, 3-[N-(5,6-dimethyl-2-methoxypyridin-3-yl)aminocarbonyl]-7,8-dimethoxy-1-phenyl-2,3,4,5-tetrahydro-3H-benzazepine] | 1.99 µg/mL (≈ 4.31 µM) | >100 µg/mL | 7.07 µg/mL | 1.21 µg/mL (≈ 2.62 µM) | >100 µg/mL | 39.81 µg/mL | – | – | – | – | – | – | – | – | – | – | – | – | – | – |
| COc1ccc2c(c1)C(c1ccccc1)CN(C(=O)n1ccnc1)CC2 (centres unmarked) [Compound 72, 3-[(1H-imidazol-1-yl)carbonyl]-8-methoxy-1-phenyl-2,3,4,5-tetrahydro-3H-benzazepine] | 1.44 µg/mL (≈ 4.14 µM) | >100 µg/mL | 7.24 µg/mL | 2.23 µg/mL (≈ 6.42 µM) | >100 µg/mL | 100 µg/mL | 0.10 µg/mL (≈ 0.288 µM) | >100 µg/mL | 9.42 µg/mL | – | – | – | – | – | – | – | – | – | – | – |
| O=C(N1CCC(c2ccccc2)(c2ccccc2)CC1)n1ccnc1 [Compound 80, 1-[(1H-imidazol-1-yl)carbonyl]-4,4-diphenyl-piperidine] | – | – | – | – | – | – | – | – | – | – | > 100 µg/mL | > 100 µg/mL | – | – | – | – | 1.62 µg/mL (≈ 4.89 µM) | 1.38 µg/mL (≈ 4.16 µM) | 1.47 µg/mL (≈ 4.44 µM) | > 100 µg/mL |
| COc1cc2c(cc1OC)C(c1ccc(F)cc1)CN(C(=O)Nc1nc3ccccc3nc1OC)CC2 (centres unmarked) [Compound 5, 3-[N-(2-methoxyquinoxalin-3-yl)aminocarbonyl]-7,8-dimethoxy-1-(4-fluoro)phenyl-2,3,4,5-tetrahydro-3H-benzazepine] | 1.69 µg/mL (≈ 3.36 µM) | >100 µg/mL | 6.16 µg/mL | 2.08 µg/mL (≈ 4.14 µM) | >100 µg/mL | 46.98 µg/mL | 0.15 µg/mL (≈ 0.298 µM) | >100 µg/mL | 4.07 µg/mL | – | – | – | – | – | – | – | – | – | – | – |
| CCOc1nc2ccccc2nc1NC(=O)N1CCc2cc(OC)c(OC)cc2C(c2ccccc2)C1 (centres unmarked) [Compound 7, 3-[N-(2-ethoxyquinoxalin-3-yl)aminocarbonyl]-7,8-dimethoxy-1-phenyl-2,3,4,5-tetrahydro-3H-benzazepine] | 2.45 µg/mL (≈ 4.91 µM) | >100 µg/mL | 7.41 µg/mL | 3.38 µg/mL (≈ 6.78 µM) | >100 µg/mL | 100 µg/mL | 0.15 µg/mL (≈ 0.301 µM) | >100 µg/mL | 4.08 µg/mL | – | – | – | – | – | – | – | – | – | – | – |
| Cc1cc(C)cc(N2CCN(C(=O)Nc3nc4ccccc4[n+]([O-])n3)CC2)c1 [Compound 28, 1-[(benzo-1,2,4-triazin-1-N-oxide-3-yl)aminocarbonyl]-4-(3,5-dimethylphenyl)piperazine] | 1.99 µg/mL (≈ 5.26 µM) | >100 µg/mL | 7.07 µg/mL | 1.31 µg/mL (≈ 3.46 µM) | >100 µg/mL | 34.67 µg/mL | – | – | – | – | – | – | – | – | – | – | – | – | – | – |
| C=C(C)CN(CC)c1nc(N2CCN(C(=O)n3ccnc3)CC2)nc(N(CC)CC(=C)C)n1 [Compound 63, 1-[(1H-imidazol-1-yl)carbonyl]-4-{4,6-bis-[ethyl-(2-methylallyl)amino]-[1,3,5]triazin-2-yl}piperazine] | – | – | – | – | – | – | – | – | – | – | > 100 µg/mL | > 100 µg/mL | – | – | – | – | 1.81 µg/mL (≈ 3.99 µM) | 2.23 µg/mL (≈ 4.92 µM) | 1.77 µg/mL (≈ 3.9 µM) | > 100 µg/mL |
